Structures are written as SMILES.

For this assay, the system named is phosphorylation of JNK in HEK293 cells stably transfected with doxycycline-inducible Flag-tagged full length DLK. The assay is described as follows: pJNK Cell based assay. Particulars: Homo sapiens; HEK293 cells with doxycycline-induced DLK, 5.5 hours compound treatment, pJNK mean intensity by imaging; read-out: p-JNK 293 IC50. The protocol: pJNK Cell based assay:HEK293 cells stably transfected with doxycycline-inducible N-terminally Flag-tagged full length DLK were plated at density of 7500 cells/well (40 μL) in 384-well Greiner bio-one μclear plate coated with Poly-D-Lysine. The cells were incubated at 37° C. in DMEM (Dulbecco's Modified Eagle Medium) media containing 10% FBS and 2 mM L-Glutamine for 20-24 hours. 5 μL of 60 μM doxycycline was added to the cells to initiate DLK expression for 20 hours at 37° C. No doxycycline was added for the negative control wells. 5 μL of compounds of formula I in various concentrations in DMEM were added to the cells and the compound treated cell culture was incubated at 37° C. for 5.5 hours prior to fixation with addition of 50 μL 4% paraformaldehyde. The wells were washed with 40 μL PBS wash twice followed by permeabilization with 0.1% Triton X-100. The cells were washed with 40 μL PBS wash twice again prior to incubation in 20 μL SuperBlock (Thermo Scientific) for 1 hour at ambient temperature. The primary antibodies (1:3000 mouse anti-Flag and 1:1000 rabbit anti-pJNK in SuperBlock) were incubated with the fixed cells overnight at 4° C. The cells were washed with 40 μL PBS twice before the addition of secondary antibodies (Anti-mouse labeled with AlexaFluor555 and anti-rabbit labeled with AlexaFluor488 in 1:2000 dilution in SuperBlock). The secondary antibodies were incubated at ambient temperature for 2 hours and were protected from light. The cells were washed with 40 μL PBS before the addition of 20 μL Hoechst 33342 (1:5000 in PBS). The plate was sealed and stored at 4° C. in the dark until imaging analyses on Opera High Content Screening System (Evotec). Three data points were reported: pJNK (mean intensity inside the search stencil), DLK (mean intensity of the 1% brightest pixels inside the search stencil) and nuclear area.
For the molecule `CC(=O)N1CCC(C#N)(c2cc(Nc3cc(C(F)(F)F)ccn3)nc(N3CCC(F)(F)C3)n2)CC1` [1-Acetyl-4-[2-(3,3-difluoro-pyrrolidin-1-yl)-6-(4-trifluoromethyl-pyridin-2-ylamino)-pyrimidin-4-yl]-piperidine-4-carbonitrile], the IC50 was determined as 605 nM.

As for `N#CC1(C(=O)N2CCC(c3cc(Nc4cc(C(F)(F)F)ccn4)nc(N4CCC(F)(F)C4)n3)C2)CC1` (stereo not drawn) [1-{3-[2-(3,3-Difluoro-pyrrolidin-1-yl)-6-(4-trifluoromethyl-pyridin-2-ylamino)-pyrimidin-4-yl]-pyrrolidine-1-carbonyl}-cyclopropanecarbonitrile], the IC50 worked out at 584 nM.

In the case of `CN(CCO)c1nc(Nc2cc(C(F)(F)F)ccn2)cc(C2CCNC2)n1` (stereo not drawn) [2-{Methyl-[4-pyrrolidin-3-yl-6-(4-trifluoromethyl-pyridin-2-ylamino)-pyrimidin-2-yl]-amino}-ethanol], the IC50 was 193 nM.

For `FC(F)(F)c1ccnc(Nc2cc(C3CCCNC3)nc(-c3ccccc3)n2)c1` (stereo not drawn) [(2-Phenyl-6-piperidin-3-yl-pyrimidin-4-yl)-(4-trifluoromethyl-pyridin-2-yl)-amine], the IC50 worked out at 1000 nM.

`FC1(F)CCN(c2nc(Nc3cc(Cl)ccn3)cc(C3CCNCC3)n2)C1` [(4-Chloro-pyridin-2-yl)-[2-(3,3-difluoro-pyrrolidin-1-yl)-6-piperidin-4-yl-pyrimidin-4-yl]-amine]: the IC50 was found to be 113 nM.

In the case of `FC1(F)CCN(c2nc(Nc3cc(C4CCC4)ccn3)cc(C3CCNCC3)n2)C1` [(4-Cyclobutyl-pyridin-2-yl)-[2-(3,3-difluoro-pyrrolidin-1-yl)-6-piperidin-4-yl-pyrimidin-4-yl]-amine], the IC50 is 200 nM.

Regarding `FC(F)(F)c1ccnc(Nc2cc(C3CCOCC3)nc(N3CC4CC3CO4)n2)c1` (stereo not drawn) [[2-(2-Oxa-5-aza-bicyclo[2.2.1]hept-5-yl)-6-(tetrahydro-pyran-4-yl)-pyrimidin-4-yl]-(4-trifluoromethyl-pyridin-2-yl)-amine], the IC50 turned out to be 268 nM.

For `FC(F)(F)c1ccnc(Nc2cc(C3CCNCC3)nc(N3CC4CC3CO4)n2)c1` (stereo not drawn) [[2-(2-Oxa-5-aza-bicyclo[2.2.1]hept-5-yl)-6-piperidin-4-yl-pyrimidin-4-yl]-(4-trifluoromethyl-pyridin-2-yl)-amine], the IC50 was 389 nM.

Take `FC(F)(F)c1ccnc(Nc2cc(C3CCOCC3)nc(N3CCc4nc[nH]c4C3)n2)c1` [[2-(3,4,6,7-Tetrahydro-imidazo[4,5-c]pyridin-5-yl)-6-(tetrahydro-pyran-4-yl)-pyrimidin-4-yl]-(4-trifluoromethyl-pyridin-2-yl)-amine]: the IC50 worked out at 240 nM.

Turning to `Cc1nccc(C2CCN(c3nc(Nc4cc(C(F)(F)F)ccn4)cc(C4CCOCC4)n3)C2)n1` (stereo not drawn) [[2-[3-(2-Methyl-pyrimidin-4-yl)-pyrrolidin-1-yl]-6-(tetrahydro-pyran-4-yl)-pyrimidin-4-yl]-(4-trifluoromethyl-pyridin-2-yl)-amine], the half-inhibitory concentration (IC50) was determined as 227 nM.

Turning to `Cc1c[nH]c(CN2CCC(c3cc(Nc4cc(C(F)(F)F)ccn4)nc(N4CC(F)(F)C4)n3)C2)n1` (stereo not drawn) [{2-(3,3-Difluoro-azetidin-1-yl)-6-[1-(4-methyl-1H-imidazol-2-ylmethyl)-pyrrolidin-3-yl]-pyrimidin-4-yl}-(4-trifluoromethyl-pyridin-2-yl)-amine], the IC50 was 418 nM.

As to `Cc1ccnc(Nc2cc(C3CCCN(C(=O)c4ccccc4)C3)nc(N3CCCC3)n2)c1` (stereo not drawn) [{3-[6-(4-Methyl-pyridin-2-ylamino)-2-pyrrolidin-1-yl-pyrimidin-4-yl]-piperidin-1-yl}-phenyl-methanone], the IC50 worked out at 77.9 nM.

The term IC50 denotes the point on the concentration scale where inhibition reaches its midpoint.

The record behind these values is patent publication US9868720B2 (Genentech, Inc., priority 2013, dated 2018).
